Literature values, collected in patent US9630918B2, “Cysteine, N-acetylcysteine, and penicillamine related compounds, pharmaceutical compositions thereof, and methods of use” (priority 2015, dated 2017).

Assays:
stable COPD = settings: patients with stable COPD, clinical study
[1] = not given; remark: listed apart in the source

In the case of `CC(=O)N[C@@H](CS)C(=O)O` [NAC, N-Acetyl-L-cysteine], the oral bioavailability is given as 4-10%, the exacerbation frequency (stable COPD) is given as “decrease exacerbation frequency” and the small airways function (stable COPD) is given as “improve small airways function”.

In the case of `CC(C)(S)[C@@H](N)C(=O)O` [D-penicillamine, D-Penicillamine], the interpatient oral variability [1] is listed as “high degree of interpatient oral variability”.
